One molecule from US20220323372A1, “COMPOSITION FOR IMPROVING LIVER FUNCTION” (NITTO FUJI FLOUR MILLING CO., LTD., priority 2019, published 2022) can be followed below.

Assay [1] has as its system Non-alcoholic steatohepatitis model mice (C57BL/6NASH mice). The experiment in a line: Weight gain in hepatitis model mice (Test Example 2). Format: in vivo. Particulars: Resveratrol group (group R): feed blended with 0.4 mass % of resveratrol, ad libitum.
For assay [2] the test system is unchanged. Description: AST value in plasma (Test Example 3). The class given is in vivo. Particulars: group R: feed with 0.4 mass % of resveratrol; week 0 to week 4; vs control group. The source says:
(§1) Non-alcoholic steatohepatitis model mice (Japan Charles River Co., Ltd., C57BL/6NASH mice, male) were purchased at the age of six weeks, acclimated for two days, and reared six per cage. The mice were reared in a constant temperature/constant humidity room maintained on a 12-hour light-dark cycle (light: 8 a.m. to 8 p.m.). After the acclimation phase, the feeds shown below were fed ad libitum in accordance with the test group. • Control group (group C): control feed not blended with test substance • Resveratrol group (group R): feed blended with 0.4 mass % of resveratrol (Tokyo Chemical Industry Co., Ltd.) • ARs high dose group (group AH): feed blended with 0.9 mass % of ARs • ARs low dose group (group AL): feed blended with 0.3 mass % of ARs The body weight was measured once a day during the test phase. Blood samples were also drawn once a week. Blood was drawn from the caudal vein of the mice, and plasma was obtained. The plasma was stored at −80° C. until being used in measurement. Also, after the body weight was measured on the final day of the test, blood was drawn under anesthesia by diethyl ether. The liver was removed immediately after sacrifice, weighed, and frozen by dry ice. […] The aspartate aminotransferase (AST) value and alanine aminotransferase (ALT) value in the plasma, which are general indicators of liver function, were measured. […]

For assay [3] the test system is unchanged. The experiment in a line: ALT value in plasma (Test Example 3). Particulars: group R: feed with 0.4 mass % of resveratrol; week 0 to week 4; vs control group. Format: in vivo.
Description: as §1

For assay [4] the test system is unchanged. Description: Triglyceride level in liver tissue (Test Example 4). The class given is in vivo. As to conditions: group R: feed with 0.4 mass % of resveratrol; control group 130 mg/g. The text has this:
Non-alcoholic steatohepatitis model mice (Japan Charles River Co., Ltd., C57BL/6NASH mice, male) were purchased at the age of six weeks, acclimated for two days, and reared six per cage. The mice were reared in a constant temperature/constant humidity room maintained on a 12-hour light-dark cycle (light: 8 a.m. to 8 p.m.). After the acclimation phase, the feeds shown below were fed ad libitum in accordance with the test group. • Control group (group C): control feed not blended with test substance • Resveratrol group (group R): feed blended with 0.4 mass % of resveratrol (Tokyo Chemical Industry Co., Ltd.) • ARs high dose group (group AH): feed blended with 0.9 mass % of ARs • ARs low dose group (group AL): feed blended with 0.3 mass % of ARs The body weight was measured once a day during the test phase. Blood samples were also drawn once a week. Blood was drawn from the caudal vein of the mice, and plasma was obtained. The plasma was stored at −80° C. until being used in measurement. Also, after the body weight was measured on the final day of the test, blood was drawn under anesthesia by diethyl ether. The liver was removed immediately after sacrifice, weighed, and frozen by dry ice. […] A quantity of 0.5 mL of normal saline was added to the recovered supernatant and mixed for several seconds. […] The resultant mixture served as a sample, and the triglyceride level was measured. […]

The test system is the same in assay [5]. Description: Pathology evaluation of liver tissue by HE stain (Test Example 5). The class given is in vivo. As to conditions: group R: feed with 0.4 mass % of resveratrol; vs control group. The source says:
Non-alcoholic steatohepatitis model mice (Japan Charles River Co., Ltd., C57BL/6NASH mice, male) were purchased at the age of six weeks, acclimated for two days, and reared six per cage. The mice were reared in a constant temperature/constant humidity room maintained on a 12-hour light-dark cycle (light: 8 a.m. to 8 p.m.). After the acclimation phase, the feeds shown below were fed ad libitum in accordance with the test group. • Control group (group C): control feed not blended with test substance • Resveratrol group (group R): feed blended with 0.4 mass % of resveratrol (Tokyo Chemical Industry Co., Ltd.) • ARs high dose group (group AH): feed blended with 0.9 mass % of ARs • ARs low dose group (group AL): feed blended with 0.3 mass % of ARs The body weight was measured once a day during the test phase. Blood samples were also drawn once a week. Blood was drawn from the caudal vein of the mice, and plasma was obtained. The plasma was stored at −80° C. until being used in measurement. Also, after the body weight was measured on the final day of the test, blood was drawn under anesthesia by diethyl ether. The liver was removed immediately after sacrifice, weighed, and frozen by dry ice. The liver was divided into halves, and each was placed in a 1.5 mL tube and frozen at −80° C. Frozen liver tissue was embedded in paraffin and sliced. […]

Assay [6] has as its system intracellular mitochondria number of liver tissue. The experiment in a line: Intracellular mitochondria number of liver tissue, weight ratio of mitochondrial DNA to genomic DNA (Test Example 8). The class given is in vivo, mice. Particulars: group R: feed with 0.4 mass % of resveratrol; vs control group. Here is the method:
In this test example, the intracellular mitochondria number of the liver tissue was examined. Specifically, the intracellular mitochondria number of the liver tissue was evaluated by comparing the weight ratio of mitochondrial DNA to genomic DNA, measured by quantitative PCR as follows. DNA was extracted from liver tissue using a “NucleoSpin (registered trademark) Tissue kit (manufactured by Takara Bio Inc.)” according to the company's instructions. Each DNA copy number was quantified using a “Mouse Feeder Cell Quantification Kit (manufactured by Takara Bio Inc.)” according to the company's instructions. Primers having the following sequences were used. The PCR reaction was carried out under the following conditions. (95° C.,30 seconds→95° C.,5 seconds→60° C.,30 seconds)×40 cycles→95° C.,60 seconds For the weight ratio of measured mitochondrial DNA to genomic DNA, the relative values of each group were compared, taking the control group (group C) as 100%.

On to `Oc1ccc(C=Cc2cc(O)cc(O)c2)cc1` [resveratrol], for which the “weight gain during the test phase” value in assay [1] is listed as “weight gain suppression in the hepatitis model mice could not be improved”. Moreover, the “changes in AST value in plasma” value in assay [2] is “the changes were almost the same as the control group”. In assay [3], the “changes in ALT value in plasma” value is recorded as “the changes were almost the same as the control group”. Also, in assay [4], the “triglyceride level in liver tissue” value is “could not be corrected”. In addition, in assay [5], the “blank spaces derived from fat droplets in HE stained liver tissue” value is on record as “virtually no effect was seen”. In addition, the “intracellular mitochondria number of liver tissue (weight ratio of mitochondrial DNA to genomic DNA)” value in assay [6] is recorded as “no changes in intracellular mitochondria number were seen”.
